US20260053861A1, “CELL COMPOSITIONS AND METHODS OF USING THE SAME” (THE REGENTS OF THE UNIVERSITY OF CALIFORNIA, priority 2022, published 2026)
Counter-ions that a name gives are not always drawn.

Tested on: hPSC-SCs
Details: not given

Row | Structure (SMILES) | z.score.t
1 | C[C@]12N[C@H](Cc3ccccc31)c1ccccc12 [Dizocilpine maleate] | −0.1538
2 | COc1c2c(nc3ccccc13)OC(C(C)(O)CO)C2 (stereo not shown) [Dubinidine] | 0.6554
3 | CC[N+](C)(C)c1cccc(O)c1 [Edrophonium chloride] | 0.7913
4 | C[C@]12CC[C@H](O)C[C@@H]1CC[C@@H]1[C@@H]2CC[C@]2(C)C(=O)CC[C@@H]12 [Epiandrosterone] | 1.457
5 | C[C@]12C[C@H]3S[C@H]3C[C@@H]1CC[C@@H]1[C@@H]2CC[C@]2(C)[C@@H](O)CC[C@@H]12 [Epitiostanol] | 0.1686
6 | CC[C@]12CCCN3CCc4c(n(c5ccccc45)[C@](O)(C(=O)OC)C1)[C@@H]32 [Epivincamine] | −0.2486
7 | CC(C)C[C@H]1C(=O)N2CCC[C@H]2[C@]2(O)O[C@](NC(=O)[C@@H]3C=C4c5cccc6[nH]cc(c56)C[C@H]4N(C)C3)(C(C)C)C(=O)N12 [Ergocryptine-alpha] | 0.495
8 | O=c1ccc2cc(O[C@@H]3O[C@H](CO)[C@@H](O)[C@H](O)[C@H]3O)c(O)cc2o1 [Esculin Hydrate] | 1.053
9 | CNC(=O)Oc1ccc2c(c1)[C@]1(C)CCN(C)[C@@H]1N2C.CNC(=O)Oc1ccc2c(c1)[C@]1(C)CCN(C)[C@@H]1N2C.O=S(=O)(O)O [Eserine sulfate, physostigmine sulfate] | −0.3526
10 | C#C[C@]1(O)CC[C@H]2[C@@H]3CCC4=CC(=O)CC[C@]4(C)[C@H]3CC[C@@]21C [Ethisterone] | 0.2916

Same assay, conditions: HTS viability of hPSC-SCs in the presence of 30 mM glucose; Prestwick library; Table S4

Row | Structure (SMILES) | z.score.t
11 | CC(C)[C@@]1(NC(=O)[C@@H]2C[C@@H]3c4cccc5[nH]cc(c45)C[C@H]3N(C)C2)O[C@@]2(O)[C@@H]3CCCN3C(=O)[C@H](Cc3ccccc3)N2C1=O [Dihydroergocristine mesylate] | −0.3319
12 | CN[C@@H]1[C@H](O[C@H]2[C@H](O[C@H]3[C@H](O)[C@@H](O)[C@H](NC(=N)N)[C@@H](O)[C@@H]3NC(=N)N)O[C@@H](C)[C@]2(O)CO)O[C@@H](CO)[C@H](O)[C@H]1O [Dihydrostreptomycin sulfate] | −0.359
13 | COc1cc(C(=O)OCCCN2CCCN(CCCOC(=O)c3cc(OC)c(OC)c(OC)c3)CC2)cc(OC)c1OC [Dilazep dihydrochloride] | −1.444
14 | CN(C(=O)C(Cl)Cl)c1ccc(OC(=O)c2ccco2)cc1 [Diloxanide furoate] | 1.069
15 | COc1ccc([C@@H]2Sc3ccccc3N(CCN(C)C)C(=O)[C@@H]2OC(C)=O)cc1 [Diltiazem hydrochloride] | 0.6906
16 | CN(C)CCCSC(=N)N [Dimaprit dihydrochloride] | 1.918
17 | CN(C)CCOC(c1ccccc1)c1ccccc1.Cn1c(=O)c2[nH]c(Cl)nc2n(C)c1=O [Dimenhydrinate] | 0.08508
18 | CC1(C)OC(=O)NC1=O [Dimethadione] | −0.03362
19 | CCCCc1cc2ccccc2c(OCCN(C)C)n1 [Dimethisoquin hydrochloride] | 0.04918
20 | CCCCC[C@H](O)/C=C/[C@@H]1[C@@H](C/C=C\CCCC(=O)O)[C@@H](O)C[C@H]1O [Dinoprost trometamol] | 1.789
21 | COc1ccc(C(=O)c2ccccc2O)c(O)c1 [Dioxybenzone] | −0.2359
22 | O=C(Nc1ccccc1)OCC(CN1CCCCC1)OC(=O)Nc1ccccc1 (stereo not shown) [Diperodon hydrochloride] | −0.7776
23 | C[N+]1(C)CCC(=C(c2ccccc2)c2ccccc2)CC1 [Diphemanil methylsulfate] | 0.05523
24 | CN(C)CCOC(c1ccccc1)c1ccccc1 [Diphenhydramine hydrochloride] | −0.5689
25 | OC(CCCN1CCCCC1)(c1ccccc1)c1ccccc1 [Diphenidol hydrochloride] | 0.9906
26 | CN1CCC(OC(c2ccccc2)c2ccccc2)CC1 [Diphenylpyraline hydrochloride] | −0.7376
27 | CNCC(O)c1ccc(OC(=O)C(C)(C)C)c(OC(=O)C(C)(C)C)c1 (stereo not shown) [Dipivefrin hydrochloride] | −1.319
28 | Cn1c(=O)c2c(ncn2CC(O)CO)n(C)c1=O (stereo not shown) [Diprophylline] | 0.7415
29 | OCCN(CCO)c1nc(N2CCCCC2)c2nc(N(CCO)CCO)nc(N3CCCCC3)c2n1 [Dipyridamole] | −0.8392
30 | Cc1c(N(C)CS(=O)(=O)[O-])c(=O)n(-c2ccccc2)n1C.[Na+] [Dipyrone] | −1.008
31 | CC[C@H]1OC(=O)[C@H](C)[C@@H](O[C@H]2C[C@@](C)(OC)[C@@H](O)[C@H](C)O2)[C@H](C)[C@@H](O[C@@H]2O[C@H](C)C[C@H](N(C)C)[C@H]2O)[C@](C)(O)C[C@@H](C)[C@@H]2N[C@@H](COCCOC)O[C@H]([C@H]2C)[C@]1(C)O [Dirithromycin] | 0.3231

Row | Structure (SMILES) | z.score.t
32 | CC(C)N(CCC(C(N)=O)(c1ccccc1)c1ccccn1)C(C)C (stereo not shown) [Disopyramide] | 0.4205
33 | CCN(CC)C(=S)SSC(=S)N(CC)CC [Disulfiram] | −1.291
34 | CC(CCc1ccc(O)cc1)NCCc1ccc(O)c(O)c1 (stereo not shown) [Dobutamine hydrochloride] | −0.3731
35 | O=c1[nH]c2ccccc2n1CCCN1CCC(n2c(=O)[nH]c3cc(Cl)ccc32)CC1 [Domperidone] | 0.006455
36 | CCN[C@H]1C[C@H](C)S(=O)(=O)c2sc(S(N)(=O)=O)cc21 [Dorzolamide hydrochloride] | −0.7873
37 | CN(C)CC/C=C1\c2ccccc2CSc2ccccc21 [Dosulepin hydrochloride] | −0.8478
38 | COc1cc2nc(N3CCN(C(=O)C4COc5ccccc5O4)CC3)nc(N)c2cc1OC (stereo not shown) [Doxazosin mesylate] | −0.8683
39 | CN(C)CCC=C1c2ccccc2COc2ccccc21 [Doxepin hydrochloride] | 0.1594
40 | COc1cccc2c1C(=O)c1c(O)c3c(c(O)c1C2=O)C[C@@](O)(C(=O)CO)C[C@@H]3O[C@H]1C[C@H](N)[C@H](O)[C@H](C)O1 [Doxorubicin hydrochloride] | −1.209
41 | CCO.C[C@H]1c2cccc(O)c2C(O)=C2C(=O)[C@]3(O)C(O)=C(C(N)=O)C(=O)[C@@H](N(C)C)[C@@H]3[C@@H](O)[C@@H]21.C[C@H]1c2cccc(O)c2C(O)=C2C(=O)[C@]3(O)C(O)=C(C(N)=O)C(=O)[C@@H](N(C)C)[C@@H]3[C@@H](O)[C@@H]21.Cl.Cl.O [Doxycycline hyclate] | 1.148
42 | CN(C)CCOC(C)(c1ccccc1)c1ccccn1 (stereo not shown) [Doxylamine succinate] | −0.1538
43 | CCN(CC)CCOC(=O)C(c1ccccc1)C1CCCCC1 (stereo not shown) [Drofenine hydrochloride] | −0.1913
44 | O=C(CCCN1CC=C(n2c(=O)[nH]c3ccccc32)CC1)c1ccc(F)cc1 [Droperidol] | 1.197
45 | CCCCOc1ccc(C(=O)CCN2CCCCC2)cc1 [Dyclonine hydrochloride] | −0.6492
46 | CC(=O)[C@H]1CC[C@H]2[C@@H]3C=CC4=CC(=O)CC[C@@]4(C)[C@@H]3CC[C@]12C [Dydrogesterone] | 0.81
47 | O=c1c2ccccc2[se]n1-c1ccccc1 [Ebselen] | 0.3459
48 | Clc1ccc(COC(Cn2ccnc2)c2ccc(Cl)cc2Cl)cc1 (stereo not shown) [Econazole nitrate] | −1.834
49 | Cc1c2ccncc2c(C)c2c1[nH]c1ccccc12 [Ellipticine] | −1.949
50 | CC[C@H]1CN2CCc3cc(OC)c(OC)cc3[C@@H]2C[C@@H]1C[C@H]1NCCc2cc(OC)c(OC)cc21 [Emetine dihydrochloride] | −1.991
51 | CCOC(=O)[C@H](CCc1ccccc1)N[C@@H](C)C(=O)N1CCC[C@H]1C(=O)O [Enalapril maleate] | −0.8991
52 | C=CCOC(Cn1ccnc1)c1ccc(Cl)cc1Cl (stereo not shown) [Enilconazole] | −1.535

Row | Structure (SMILES) | z.score.t
53 | Oc1cc(O)c2c(c1)O[C@H](c1ccc(O)c(O)c1)[C@H](O)C2 [Epicatechin-(−)] | −0.411
54 | COc1cc(C)nc(-n2nc(C)cc2OC)n1 [Epirizole] | 1.191
55 | C[C@]12CC[C@H]3C(=CCc4cc(O)ccc43)[C@@H]1CCC2=O [Equilin] | 0.9352
56 | CC[C@H]1OC(=O)[C@H](C)[C@@H](O[C@H]2C[C@@](C)(OC)[C@@H](O)[C@H](C)O2)[C@H](C)[C@@H](O[C@@H]2O[C@H](C)C[C@H](N(C)C)[C@H]2O)[C@](C)(O)C[C@@H](C)C(=O)[C@H](C)[C@@H](O)[C@]1(C)O [Erythromycin] | −0.09426
57 | O=c1ccc2cc(O)c(O)cc2o1 [Esculetin] | −0.7376
58 | C[C@]12CC[C@@H]3c4ccc(O)cc4CC[C@H]3[C@@H]1CC[C@@H]2O [Estradiol-17 beta] | −0.7953
59 | C[C@]12CC[C@@H]3c4ccc(O)cc4CC[C@H]3[C@@H]1C[C@@H](O)[C@@H]2O [Estriol] | 0.7296
60 | C[C@]12CC[C@@H]3c4ccc(O)cc4CC[C@H]3[C@@H]1CCC2=O [Estrone] | 1.784
61 | C[C@]12CC[C@@H]3c4ccc(OS(=O)(=O)O)cc4CC[C@H]3[C@@H]1CCC2=O [Estropipate] | 1.178
62 | O=C(Cn1ccnc1[N+](=O)[O-])NCCO [Etanidazole] | 0.1469
63 | C=C(CC)C(=O)c1ccc(OCC(=O)O)c(Cl)c1Cl [Ethacrynic acid] | 1.53
64 | CC[C@@H](CO)NCCN[C@@H](CC)CO [Ethambutol dihydrochloride] | 1.13
65 | CCN(CC)C(=O)c1ccc(O)c(OC)c1 [Ethamivan] | 1.211
66 | O=S(=O)(O)c1cc(O)ccc1O [Ethamsylate] | −0.4549
67 | CCOc1ccc(Cc2nccc3cc(OCC)c(OCC)cc23)cc1OCC [Ethaverine hydrochloride] | 0.453
68 | CCc1cc(C(N)=S)ccn1 [Ethionamide] | 0.3024
69 | CCN(CC)C(C)CN1c2ccccc2Sc2ccccc21 (stereo not shown) [Ethopropazine hydrochloride] | 0.2139
70 | CCC1(C)CC(=O)NC1=O (stereo not shown) [Ethosuximide] | 0.4064
71 | CCN1C(=O)NC(c2ccccc2)C1=O (stereo not shown) [Ethotoin] | −0.6988
72 | CCOc1ccc2c(c1)C(C)=CC(C)(C)N2 [Ethoxyquin] | −1.23
73 | C#C[C@]1(OC(C)=O)CC[C@H]2[C@@H]3CCC4=C[C@@H](OC(C)=O)CC[C@@H]4[C@H]3CC[C@@]21C [Ethynodiol diacetate] | −0.3895
